Experimental data as given in ChEMBL document CHEMBL1152078, “An efficient preparation of the potent and selective pseudopeptide thrombin inhibitor, inogatran” (Bioorg Med Chem Lett, 1997).

Assays:
[1] = The compound was evaluated for bioavailability in rats; 32-51; assay type: ADME, organism-based; conditions: rat, in vivo; read-out: Bioavailabiility
[2] = The compound was evaluated for bioavailability in dogs; 34-44; assay type: ADME, organism-based, Canis lupus familiaris; conditions: dog, in vivo; read-out: Bioavailabiility

In the case of Cl.Cl.N=C(N)NCCCNC(=O)[C@@H]1CCCCN1C(=O)[C@@H](CC1CCCCC1)NCC(=O)O, the bioavailability [1] is reported as 51% and the bioavailability [2] is reported as 44%.
